Results from patent US20190216772A1, “Antioxidant-Containing Food Composition for Use in Enhancing Antiviral Immunity in Companion Animals” (priority 2008, published 2019).

Assays:
Assay type in all cases: in vivo, dog
JAK2 = test: Whole blood gene expression (canine 2 Affymetrix genechip) in dogs fed lipoic acid food for 30 days; settings: dogs fed control food containing 150 ppm alpha-lipoic acid for 30 days vs control food; whole blood RNA
Description: (§1) Twenty dogs were fed for 30 days. Ten were fed an AAFCO level control food and 10 other dogs were fed the AAFCO level control food containing 150 ppm alpha-lipoic acid. At the end of the end of the 30 days whole blood samples were collected from each dog in Paxgene tubes.
(§2) Total RNAs were isolated from whole blood samples using the PAXgene RNA isolation kit. All measurements were done with the canine 2 Affymetrix genechips. For statistical analysis, all measurements were normalized with RMA. All analysis was preformed using Partek. An ANOVA t-test was performed for genes that are differentially expressed between the control and test foods. (at least a 20% change in expression with a pvalue<0.05)
(§3) Differentially expressed genes were analyzed with the GeneGo pathway analysis software.

EIF2AK2 = test: as above; settings: dogs fed control food containing 150 ppm alpha-lipoic acid for 30 days vs control food
Description: as §1, §2, §3

IFNAR2 = test: as above; settings: dogs fed control food containing 150 ppm alpha-lipoic acid for 30 days vs control food; whole blood RNA
Description: as §1, §2, §3

IFR9 = test: as above; settings: dogs fed control food containing 150 ppm alpha-lipoic acid for 30 days vs control food; whole blood RNA
Description: as §1, §2, §3

RNASEL = test: as above; settings: dogs fed control food containing 150 ppm alpha-lipoic acid for 30 days vs control food; whole blood RNA
Description: as §1, §2, §3

CREBBP = test: as above; settings: dogs fed control food containing 150 ppm alpha-lipoic acid for 30 days vs control food; whole blood RNA
Description: as §1, §2, §3

IFNGR2 = test: as above; settings: dogs fed control food containing 150 ppm alpha-lipoic acid for 30 days vs control food; whole blood RNA
Description: as §1, §2, §3

[1] = tested on: interferon mediated antiviral response; test: GeneGo pathway analysis of differentially expressed genes in dogs fed lipoic acid; settings: dogs fed lipoic acid for 30 days; 150 ppm in food
Description: as §1, §2, §3

O=C(O)CCCCC1CCSS1 (stereo not drawn) [lipoic acid, alpha-lipoic acid]
Fold Up-regulated, JAK2 (Tyrosine protein kinase JAK2) (JAK2): 1.4 fold
Fold Up-regulated, EIF2AK2 (Interferon-induced double stranded RNA-activated protein) (EIF2AK2): 1.4 fold
Fold Up-regulated, IFNAR2 (interferon-alpha/beta receptor beta chain precursor) (IFNAR2): 1.3 fold
Fold Up-regulated, IFR9 (interferon regulatory factor 9) (IFR9): 1.3 fold
Fold Up-regulated, RNASEL (2-5A-dependent ribonuclease) (RNASEL): 1.5 fold
Fold Up-regulated, CREBBP (CREB-binding protein) (CREBBP): 1.2 fold
Fold Up-regulated, IFNGR2 (interferon-gamma receptor beta chain precursor) (IFNGR2): 1.2 fold
interferon mediated antiviral response (pathway analysis of differentially expressed genes) [1]: exhibited an interferon mediated antiviral response
